Key:
Format in all cases: in vivo, mouse
GAA-KO mice [1] = experiment: Weight gain, liver-targeted gene therapy plus clenbuterol; conditions: vector plus clenbuterol v. mock treatment; p=0.06
Experimental: FIG. 4A-4B depicts enhanced Rotarod performance and weight gain following liver-targeted gene therapy plus clenbuterol treatment. The GAA-KO mice (5 per group) were injected with AAV-LSPhGAA (2×10^10 vector particles/mouse). Vector treated mice were treated with clenbuterol or untreated. Non-vector treated GAA-KO mice were treated with clenbuterol or untreated to serve as controls. Mice were euthanized for tissue analysis 4 weeks after vector injection. […] Mean+/−standard deviation are shown. Statistically significant differences indicated (*=p<0.05; **=p<0.01).
(§1) For in vivo analysis of AAV vectors, stocks were administered intravenously (via the retroorbital sinus) in 3 month-old and 15 month-old GAA-KO mice, and to 3 month-old tolerant GAA-KO and DKO mice. Clenbuterol (30 μg/ml) was administered to groups of 3 month-old vector-injected and mock-injected male GAA-KO mice in drinking water for 28 days. At the indicated time points post-injection, tissue samples were obtained and processed as described below. All animal procedures were done in accordance with Duke University Institutional Animal Care and Use Committee-approved guidelines. GAA activity and glycogen content were analyzed essentially as described (Sun et al., Mol. Ther., 2005, 11:889-898; Sun et al., Mol. Ther., 2005, 11: 57-65). Rotarod testing was performed essentially as described (Sun, B. D. et al. 2005). […]

GAA-KO mice [2] = experiment: GAA activity in tissues, gene therapy plus clenbuterol
Experimental: FIG. 5A-5B depicts enhanced efficacy from liver-targeted gene therapy plus clenbuterol treatment. The GAA-KO mice were injected with AAV-LSPhGAA (2×10^10 vector particles/mouse) or uninjected (5 per group). Vector-treated mice were treated with AAV-LSPhGAA and clenbuterol or with AAV-LSPhGAA alone. Untreated (mock) GAA-KO mice were used as controls. Mice were euthanized for tissue analysis 4 weeks after vector injection. […] Statistically significant differences indicated (*=p<0.05; **=p<0.01).
as §1

CI-MPR = experiment: Western blot and densitometry of CI-MPR expression in skeletal muscle and brain; conditions: following clenbuterol treatment
Experimental: Western blot detection of CI-MPR and control proteins, β-actin or glyceraldehydes-3-phosphate dehydrogenase (GAPDH) in the tissues of GAA-KO mice is shown, with molecular weights indicated. Each lane represents an individual mouse. Equivalent quantities of tissue homogenate were loaded for each mouse. […] Mean+/−standard deviation are shown. Statistically significant differences indicated (*=p<0.05; **=p<0.01).
For in vivo analysis of AAV vectors, stocks were administered intravenously (via the retroorbital sinus) in 3 month-old and 15 month-old GAA-KO mice, and to 3 month-old tolerant GAA-KO and DKO mice. Clenbuterol (30 μg/ml) was administered to groups of 3 month-old vector-injected and mock-injected male GAA-KO mice in drinking water for 28 days. At the indicated time points post-injection, tissue samples were obtained and processed as described below. All animal procedures were done in accordance with Duke University Institutional Animal Care and Use Committee-approved guidelines. GAA activity and glycogen content were analyzed essentially as described (Sun et al., Mol. Ther., 2005, 11:889-898; Sun et al., Mol. Ther., 2005, 11: 57-65). Rotarod testing was performed essentially as described (Sun, B. D. et al. 2005). Western blotting of hGAA was performed essentially as described (Amalfitano et al., Proc. Natl. Acad. Sci. USA, 1999, 96: 8861-8866) using the hGAA monoclonal antibody (courtesy of Genzyme Corp., Framingham, Mass.) and the CI-MPR antibody (catalog number GTX28093; Gene Tex, Irvine, Calif.).

[3] = tested on: immune tolerant GAA-KO mice; experiment: Rotarod testing, ERT plus β2 agonist (Example 6); conditions: after 4 weeks of treatment; clenbuterol 6 mg/l drinking water plus ERT v. ERT alone
Experimental: GAA-KO mice were administered four weekly doses of rhGAA (20 mg/kg), and treated with medium dose clenbuterol (n=7), albuterol (n=4) or untreated (n=6 or 3). […] Mean+/−standard deviation are shown. P values indicate statistically significant differences (lines).
Two β2 agonists were evaluated in combination with ERT, clenbuterol and albuterol. The dose of clenbuterol was reduced 5-fold from the concentration used in Example 4, to 6 mg/l in drinking water, while albuterol was evaluated at the higher dose (30 mg/l in drinking water). Groups of 3 month-old immune tolerant GAA-KO mice (Raben et al., Human Mol. Genet., 2001, 10:2039-2047) were treated with four weekly doses of rhGAA (20 mg/kg body weight), with or without concurrent β2 agonist treatment.
Mice were sacrificed 7 days after the last injection. Selected tissues were collected for GAA enzyme activity and glycogen content analyses. […] GAA activity and glycogen content analyses, Rotarod testing, and Western blot detection of CI-MPR was performed essentially as described (Koeberl et al., Mol. Genet. Metab., 2011, 103:107-112. Wire hang testing was performed with a 0.5 cm mesh hardware cloth fixed to an 8 by 10 inch frame. Mice were placed on the wire mesh, which was slowly inverted 6 inches over a cage containing paper bedding. The latency, or time until the mouse fell into the cage, was recorded.

[4] = tested on: immune tolerant GAA-KO mice; experiment: Glycogen content in tissues, ERT plus β2 agonist (Example 6)
Experimental: Male GAA-KO mice were administered four weekly doses of 20 mg/kg body weight of rhGAA and sacrificed one week following the last injection. Groups of mice were treated with clenbuterol (n=6), albuterol (n=4) or untreated (n=6). Mice were euthanized for tissue analysis 5 weeks after initiation of ERT.
Cerebral and cerebellar hemispheres were analyzed 5 weeks following the initiation of ERT. Groups of mice were treated with clenbuterol (n=6), albuterol (n=4) or untreated (n=6).
Two β2 agonists were evaluated in combination with ERT, clenbuterol and albuterol. […] Groups of 3 month-old immune tolerant GAA-KO mice (Raben et al., Human Mol. Genet., 2001, 10:2039-2047) were treated with four weekly doses of rhGAA (20 mg/kg body weight), with or without concurrent β2 agonist treatment.
Mice were sacrificed 7 days after the last injection. Selected tissues were collected for GAA enzyme activity and glycogen content analyses. All animal procedures were done in accordance with Duke University Institutional Animal Care and Use Committee-approved guidelines. GAA activity and glycogen content analyses, Rotarod testing, and Western blot detection of CI-MPR was performed essentially as described (Koeberl et al., Mol. Genet. Metab., 2011, 103:107-112. Wire hang testing was performed with a 0.5 cm mesh hardware cloth fixed to an 8 by 10 inch frame. Mice were placed on the wire mesh, which was slowly inverted 6 inches over a cage containing paper bedding. The latency, or time until the mouse fell into the cage, was recorded.

[5] = tested on: immune tolerant GAA-KO mice; experiment: Histopathology of brain, glycogen staining; conditions: cerebellum; in comparison with ERT alone
Experimental: Histopathology was performed to examine brain involvement, and glycogen accumulations were detected in the cerebellum with ERT alone. Albuterol and clenbuterol each reduced the glycogen staining in the cerebellum, in comparison with ERT alone.

CC(C)(C)NCC(O)c1cc(Cl)c(N)c(Cl)c1 (stereo not shown) [clenbuterol]
weight gain (GAA-KO mice [1]): trend toward greater weight gain
GAA activity (GAA-KO mice [2]; heart, vector plus clenbuterol v. vector alone, p=0.03): significantly increased
GAA activity (GAA-KO mice [2]; skeletal muscles and the brain, clenbuterol administration with vector): significantly increased
CI-MPR signal (densitometry of Western blots) (CI-MPR; EDL): increased
CI-MPR signal (densitometry of Western blots) (CI-MPR; cerebellum): increased
CI-MPR signal (densitometry of Western blots) (CI-MPR; cerebrum): increased
Rotarod latency [3]: significantly increased
Glycogen content ([4]; all striated muscles with the exception of tibialis anterior, clenbuterol plus ERT v. ERT alone): reduced significantly
Glycogen content ([4]; cerebellum, β2 agonist plus ERT v. ERT alone): reduced significantly
glycogen staining (histopathology) [5]: reduced

From patent US8679478B2, “Methods of lysosomal storage disease therapy” (Duke University, priority 2010, dated 2014)
